In ChEMBL document CHEMBL1201862, “PubChem BioAssay data set” (2004):
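Dose response: 5 concentrations. Exposure: 48 h. Format: 96-well plates. Endpoint: linear interpolation; highest concentration if not reached. Here, GI50 denotes the concentration required for 50% inhibition of growth.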 Active and inactive are the calls of the source. Rule as the data show it: active = GI50 up to about 1.1 µM and inactive = higher.

What was measured:
Test in all cases: DTP human tumour cell line panel, 48 h
[1] = system: 786-0
[2] = system: A498
[3] = system: A549
[4] = system: ACHN
[5] = system: BT-549
[6] = system: CAKI-1
[7] = system: CCRF-CEM
[8] = system: COLO 205
[9] = system: DU-145
[10] = system: EKVX
[11] = system: HCC 2998
[12] = system: HCT-116
[13] = system: HCT-15
[14] = system: HL-60
[15] = system: HOP-62
[16] = system: HT-29
[17] = system: Hs-578T
[18] = system: IGROV-1
[19] = system: K562
[20] = system: KM12
[21] = system: LOX IMVI
[22] = system: M14
[23] = system: MCF7
[24] = system: MDA-MB-231
[25] = system: MDA-MB-435
[26] = system: MDA-N
[27] = system: MOLT-4
[28] = system: Malme-3M
[29] = system: NCI-H226
[30] = system: NCI-H23
[31] = system: NCI-H460
[32] = system: NCI-H522
[33] = system: NCI/ADR-RES
[34] = system: OVCAR-3
[35] = system: OVCAR-4
[36] = system: OVCAR-5
[37] = system: OVCAR-8
[38] = system: PC-3
[39] = system: RPMI-8226
[40] = system: RXF 393
[41] = system: SF-268
[42] = system: SF-295
[43] = system: SF-539
[44] = system: SK-MEL-28
[45] = system: SK-MEL-2
[46] = system: SK-MEL-5
[47] = system: SK-OV-3
[48] = system: SN12C
[49] = system: SNB-19
[50] = system: SNB-75
[51] = system: SW-620
[52] = system: T47D
[53] = system: TK-10
[54] = system: U-251
[55] = system: UACC-257
[56] = system: UACC-62
[57] = system: HOP-92
[58] = system: UO-31

CCOC(=O)c1c(-c2ccccc2)c(OC)cn1C
GI50 [1]: > 10 µM (inactive)
GI50 [2]: > 10 µM (inactive)
GI50 [3]: > 10 µM (inactive)
GI50 [4]: > 10 µM (inactive)
GI50 [5]: > 10 µM (inactive)
GI50 [6]: > 10 µM (inactive)
GI50 [7]: > 10 µM (inactive)
GI50 [8]: > 10 µM (inactive)
GI50 [9]: > 10 µM (inactive)
GI50 [10]: > 10 µM (inactive)
GI50 [11]: > 10 µM (inactive)
GI50 [12]: > 10 µM (inactive)
GI50 [13]: > 10 µM
GI50 [14]: > 10 µM (inactive)
GI50 [15]: > 10 µM (inactive)
GI50 [16]: > 10 µM (inactive)
GI50 [17]: > 10 µM (inactive)
GI50 [18]: > 10 µM (inactive)
GI50 [19]: > 10 µM (inactive)
GI50 [20]: > 10 µM (inactive)
GI50 [21]: > 10 µM (inactive)
GI50 [22]: > 10 µM (inactive)
GI50 [23]: > 10 µM (inactive)
GI50 [24]: > 10 µM (inactive)
GI50 [25]: > 10 µM (inactive)
GI50 [26]: > 10 µM (inactive)
GI50 [27]: > 10 µM (inactive)
GI50 [28]: > 10 µM (inactive)
GI50 [29]: > 10 µM (inactive)
GI50 [30]: > 10 µM (inactive)
GI50 [31]: > 10 µM (inactive)
GI50 [32]: > 10 µM (inactive)
GI50 [33]: > 10 µM (inactive)
GI50 [34]: > 10 µM (inactive)
GI50 [35]: > 10 µM (inactive)
GI50 [36]: > 10 µM (inactive)
GI50 [37]: > 10 µM (inactive)
GI50 [38]: > 10 µM (inactive)
GI50 [39]: > 10 µM (inactive)
GI50 [40]: > 10 µM (inactive)
GI50 [41]: > 10 µM (inactive)
GI50 [42]: > 10 µM (inactive)
GI50 [43]: > 10 µM (inactive)
GI50 [44]: > 10 µM (inactive)
GI50 [45]: > 10 µM (inactive)
GI50 [46]: > 10 µM (inactive)
GI50 [47]: > 10 µM (inactive)
GI50 [48]: > 10 µM (inactive)
GI50 [49]: > 10 µM (inactive)
GI50 [50]: > 10 µM (inactive)
GI50 [51]: > 10 µM (inactive)
GI50 [52]: > 10 µM (inactive)
GI50 [53]: > 10 µM (inactive)
GI50 [54]: > 10 µM (inactive)
GI50 [55]: > 10 µM (inactive)
GI50 [56]: > 10 µM (inactive)

Nc1c(S(N)(=O)=O)cc(S(N)(=O)=O)cc1S(N)(=O)=O
GI50 [1]: > 100 µM (inactive)
GI50 [2]: > 100 µM (inactive)
GI50 [3]: > 100 µM (inactive)
GI50 [4]: > 100 µM (inactive)
GI50 [5]: > 100 µM (inactive)
GI50 [6]: > 100 µM (inactive)
GI50 [8]: > 100 µM (inactive)
GI50 [9]: > 100 µM (inactive)
GI50 [10]: > 100 µM (inactive)
GI50 [11]: > 100 µM (inactive)
GI50 [12]: > 100 µM (inactive)
GI50 [13]: > 100 µM
GI50 [15]: > 100 µM (inactive)
GI50 [57]: > 100 µM (inactive)
GI50 [16]: > 100 µM (inactive)
GI50 [17]: > 100 µM (inactive)
GI50 [18]: > 100 µM (inactive)
GI50 [19]: > 100 µM (inactive)
GI50 [20]: > 100 µM (inactive)
GI50 [21]: > 100 µM (inactive)
GI50 [22]: > 100 µM (inactive)
GI50 [23]: > 100 µM (inactive)
GI50 [24]: > 100 µM (inactive)
GI50 [25]: > 100 µM (inactive)
GI50 [26]: > 100 µM (inactive)
GI50 [27]: > 100 µM (inactive)
GI50 [28]: > 100 µM (inactive)
GI50 [29]: > 100 µM (inactive)
GI50 [30]: > 100 µM (inactive)
GI50 [31]: > 100 µM (inactive)
GI50 [32]: > 100 µM (inactive)
GI50 [33]: > 100 µM (inactive)
GI50 [34]: > 100 µM (inactive)
GI50 [35]: > 100 µM (inactive)
GI50 [36]: > 100 µM (inactive)
GI50 [37]: > 100 µM (inactive)
GI50 [38]: 61.1 µM (inactive)
GI50 [39]: > 100 µM (inactive)
GI50 [40]: > 100 µM (inactive)
GI50 [41]: > 100 µM (inactive)
GI50 [42]: > 100 µM (inactive)
GI50 [44]: > 100 µM (inactive)
GI50 [46]: > 100 µM (inactive)
GI50 [47]: > 100 µM (inactive)
GI50 [48]: > 100 µM (inactive)
GI50 [49]: > 100 µM (inactive)
GI50 [50]: > 100 µM (inactive)
GI50 [51]: > 100 µM (inactive)
GI50 [52]: > 100 µM (inactive)
GI50 [53]: > 100 µM (inactive)
GI50 [54]: > 100 µM (inactive)
GI50 [55]: > 100 µM (inactive)
GI50 [56]: > 100 µM (inactive)
GI50 [58]: > 100 µM (inactive)
